Data published in patent publication US20230250066A1, “HERBICIDAL CINNOLINE DERIVATIVES” (SYNGENTA CROP PROTECTION AG, priority 2020, published 2023).

Key:
Format in all cases: in vivo
[1] = system: Amaranthus retoflexus (AMARE); assay: Pre-emergence herbicidal test; settings: 1000 g/ha, evaluated after 13 days
[2] = system: Ipomoea hederacea (IPOHE); assay: Pre-emergence herbicidal test; settings: 1000 g/ha, evaluated after 13 days
[3] = system: Setaria faberi (SETFA); assay: Pre-emergence herbicidal test; settings: 1000 g/ha, evaluated after 13 days
[4] = system: Ipomoea hederacea (IPOHE); assay: Post-emergence herbicidal test; settings: 1000 g/ha unless otherwise stated, evaluated after 13 days
How it was run: (§1)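 Pots sown in standard soil were kept in a glasshouse (24° C./16° C. day/night, 14 hours light, 65% humidity) and sprayed at 1000 g/ha unless otherwise stated in acetone/water (50:50) with 0.5% Tween 20. Percentage damage was scored after 13 days on a 0–5 scale.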

[5] = system: Amaranthus retoflexus (AMARE); assay: Post-emergence herbicidal test; settings: 1000 g/ha unless otherwise stated, evaluated after 13 days
How it was run: as §1

[6] = system: Abutilon theophrasti (ABUTH); assay: Post-emergence herbicidal test; settings: 1000 g/ha unless otherwise stated, evaluated after 13 days
How it was run: as §1

[7] = system: Setaria faberi (SETFA); assay: Post-emergence herbicidal test; settings: 1000 g/ha unless otherwise stated, evaluated after 13 days
How it was run: as §1

[8] = system: Zea mays (ZEAMX); assay: Post-emergence herbicidal test; settings: 1000 g/ha unless otherwise stated, evaluated after 13 days
How it was run: as §1

[9] = system: Echinochloa crus-galli (ECHCG); assay: Post-emergence herbicidal test; settings: 1000 g/ha unless otherwise stated, evaluated after 13 days
How it was run: as §1

[10] = system: Abutilon theophrasti (ABUTH); assay: Pre-emergence herbicidal test; settings: 1000 g/ha, evaluated after 13 days
[11] = system: Zea mays (ZEAMX); assay: Pre-emergence herbicidal test; settings: 1000 g/ha, evaluated after 13 days
[12] = system: Echinochloa crus-galli (ECHCG); assay: Pre-emergence herbicidal test; settings: 1000 g/ha, evaluated after 13 days

## CC(C)(C)COC(=O)c1nn(-c2ccc(OC(F)(F)F)cc2)c2cccc(S(C)(=O)=O)c2c1=O [Compound P68, 2,2-dimethylpropyl 5-methylsulfonyl-4-oxo-1-[4-(trifluoromethoxy)phenyl]cinnoline-3-carboxylate]
[1]
  percentage damage caused to the plant, five-point scale, AMARE: 0 (0=0%)
[2]
  percentage damage caused to the plant, five-point scale, IPOHE: 0 (0=0%)
[3]
  percentage damage caused to the plant, five-point scale, SETFA: 4 (4=61-80%)
[4]
  percentage damage caused to the plant, IPOHE (five-point scale): 0 (0=0%)
[5]
  percentage damage caused to the plant, AMARE (five-point scale): 0 (0=0%)
[6]
  percentage damage caused to the plant, ABUTH (five-point scale): 0 (0=0%)
[7]
  percentage damage caused to the plant, SETFA (five-point scale): 3 (3=41-60%)
[8]
  percentage damage caused to the plant, ZEAMX (five-point scale): 1 (1=10-20%)
[9]
  percentage damage caused to the plant, ECHCG (five-point scale): 3 (3=41-60%)
[10]
  percentage damage caused to the plant, five-point scale, ABUTH: 0 (0=0%)
[11]
  percentage damage caused to the plant, five-point scale, ZEAMX: 0 (0=0%)
[12]
  percentage damage caused to the plant, five-point scale, ECHCG: 4 (4=61-80%)

## COCCCOC(=O)c1nn(-c2ccc(OC(F)(F)F)cc2)c2cccc(S(C)(=O)=O)c2c1=O [Compound P69, 3-methoxypropyl 5-methylsulfonyl-4-oxo-1-[4-(trifluoromethoxy)phenyl]cinnoline-3-carboxylate]
[1]
  percentage damage caused to the plant, five-point scale, AMARE: 0 (0=0%)
[2]
  percentage damage caused to the plant, five-point scale, IPOHE: 0 (0=0%)
[3]
  percentage damage caused to the plant, five-point scale, SETFA: 4 (4=61-80%)
[4]
  percentage damage caused to the plant, IPOHE (five-point scale): 1 (1=10-20%)
[5]
  percentage damage caused to the plant, AMARE (five-point scale): 0 (0=0%)
[6]
  percentage damage caused to the plant, ABUTH (five-point scale): 1 (1=10-20%)
[7]
  percentage damage caused to the plant, SETFA (five-point scale): 4 (4=61-80%)
[8]
  percentage damage caused to the plant, ZEAMX (five-point scale): 2 (2=21-40%)
[9]
  percentage damage caused to the plant, ECHCG (five-point scale): 3 (3=41-60%)
[10]
  percentage damage caused to the plant, five-point scale, ABUTH: 0 (0=0%)
[11]
  percentage damage caused to the plant, five-point scale, ZEAMX: 0 (0=0%)
[12]
  percentage damage caused to the plant, five-point scale, ECHCG: 4 (4=61-80%)

## CS(=O)(=O)c1cccc2c1c(=O)c(C(=O)OC1CCOC1)nn2-c1ccc(OC(F)(F)F)cc1 (stereo not drawn) [Compound P70, tetrahydrofuran-3-yl 5-methylsulfonyl-4-oxo-1-[4-(trifluoromethoxy)phenyl]cinnoline-3-carboxylate]
[1]
  percentage damage caused to the plant, five-point scale, AMARE: 0 (0=0%)
[2]
  percentage damage caused to the plant, five-point scale, IPOHE: 0 (0=0%)
[3]
  percentage damage caused to the plant, five-point scale, SETFA: 4 (4=61-80%)
[4]
  percentage damage caused to the plant, IPOHE (five-point scale): 0 (0=0%)
[5]
  percentage damage caused to the plant, AMARE (five-point scale): 0 (0=0%)
[6]
  percentage damage caused to the plant, ABUTH (five-point scale): 1 (1=10-20%)
[7]
  percentage damage caused to the plant, SETFA (five-point scale): 4 (4=61-80%)
[8]
  percentage damage caused to the plant, ZEAMX (five-point scale): 0 (0=0%)
[9]
  percentage damage caused to the plant, ECHCG (five-point scale): 3 (3=41-60%)
[10]
  percentage damage caused to the plant, five-point scale, ABUTH: 0 (0=0%)
[11]
  percentage damage caused to the plant, five-point scale, ZEAMX: 1 (1=10-20%)
[12]
  percentage damage caused to the plant, five-point scale, ECHCG: 3 (3=41-60%)

## C#CCCOC(=O)c1nn(-c2ccc(OC(F)(F)F)cc2)c2cccc(S(C)(=O)=O)c2c1=O [Compound P71, but-3-ynyl 5-methylsulfonyl-4-oxo-1-[4-(trifluoromethoxy)phenyl]cinnoline-3-carboxylate]
[1]
  percentage damage caused to the plant, five-point scale, AMARE: 0 (0=0%)
[2]
  percentage damage caused to the plant, five-point scale, IPOHE: 0 (0=0%)
[3]
  percentage damage caused to the plant, five-point scale, SETFA: 5 (5=81-100%)
[4]
  percentage damage caused to the plant, IPOHE (five-point scale): 1 (1=10-20%)
[5]
  percentage damage caused to the plant, AMARE (five-point scale): 0 (0=0%)
[6]
  percentage damage caused to the plant, ABUTH (five-point scale): 0 (0=0%)
[7]
  percentage damage caused to the plant, SETFA (five-point scale): 3 (3=41-60%)
[8]
  percentage damage caused to the plant, ZEAMX (five-point scale): 1 (1=10-20%)
[9]
  percentage damage caused to the plant, ECHCG (five-point scale): 3 (3=41-60%)
[10]
  percentage damage caused to the plant, five-point scale, ABUTH: 0 (0=0%)
[11]
  percentage damage caused to the plant, five-point scale, ZEAMX: 0 (0=0%)
[12]
  percentage damage caused to the plant, five-point scale, ECHCG: 4 (4=61-80%)

## CC(C)COC(=O)c1nn(-c2ccc(OC(F)(F)F)cc2)c2cccc(S(C)(=O)=O)c2c1=O [Compound P72, isobutyl 5-methylsulfonyl-4-oxo-1-[4-(trifluoromethoxy)phenyl]cinnoline-3-carboxylate]
[1]
  percentage damage caused to the plant, five-point scale, AMARE: 0 (0=0%)
[2]
  percentage damage caused to the plant, five-point scale, IPOHE: 0 (0=0%)
[3]
  percentage damage caused to the plant, five-point scale, SETFA: 4 (4=61-80%)
[4]
  percentage damage caused to the plant, IPOHE (five-point scale): 1 (1=10-20%)
[5]
  percentage damage caused to the plant, AMARE (five-point scale): 0 (0=0%)
[6]
  percentage damage caused to the plant, ABUTH (five-point scale): 0 (0=0%)
[7]
  percentage damage caused to the plant, SETFA (five-point scale): 4 (4=61-80%)
[8]
  percentage damage caused to the plant, ZEAMX (five-point scale): 1 (1=10-20%)
[9]
  percentage damage caused to the plant, ECHCG (five-point scale): 3 (3=41-60%)
[10]
  percentage damage caused to the plant, five-point scale, ABUTH: 0 (0=0%)
[11]
  percentage damage caused to the plant, five-point scale, ZEAMX: 0 (0=0%)
[12]
  percentage damage caused to the plant, five-point scale, ECHCG: 4 (4=61-80%)

## CS(=O)(=O)c1cccc2c1c(=O)c(C(=O)OCCC#N)nn2-c1ccc(OC(F)(F)F)cc1 [Compound P73, 2-cyanoethyl 5-methylsulfonyl-4-oxo-1-[4-(trifluoromethoxy)phenyl]cinnoline-3-carboxylate]
[1]
  percentage damage caused to the plant, five-point scale, AMARE: 0 (0=0%)
[2]
  percentage damage caused to the plant, five-point scale, IPOHE: 0 (0=0%)
[3]
  percentage damage caused to the plant, five-point scale, SETFA: 5 (5=81-100%)
[4]
  percentage damage caused to the plant, IPOHE (five-point scale): 1 (1=10-20%)
[5]
  percentage damage caused to the plant, AMARE (five-point scale): 0 (0=0%)
[6]
  percentage damage caused to the plant, ABUTH (five-point scale): 0 (0=0%)
[7]
  percentage damage caused to the plant, SETFA (five-point scale): 4 (4=61-80%)
[8]
  percentage damage caused to the plant, ZEAMX (five-point scale): 1 (1=10-20%)
[9]
  percentage damage caused to the plant, ECHCG (five-point scale): 3 (3=41-60%)
[10]
  percentage damage caused to the plant, five-point scale, ABUTH: 0 (0=0%)
[11]
  percentage damage caused to the plant, five-point scale, ZEAMX: 0 (0=0%)
[12]
  percentage damage caused to the plant, five-point scale, ECHCG: 3 (3=41-60%)

## CC(OC(=O)c1nn(-c2ccc(OC(F)(F)F)cc2)c2cccc(S(C)(=O)=O)c2c1=O)C1CC1 (stereo not drawn) [Compound P74, 1-cyclopropylethyl 5-methylsulfonyl-4-oxo-1-[4-(trifluoromethoxy)phenyl]cinnoline-3-carboxylate]
[1]
  percentage damage caused to the plant, five-point scale, AMARE: 0 (0=0%)
[2]
  percentage damage caused to the plant, five-point scale, IPOHE: 0 (0=0%)
[3]
  percentage damage caused to the plant, five-point scale, SETFA: 5 (5=81-100%)
[4]
  percentage damage caused to the plant, IPOHE (five-point scale): 0 (0=0%)
[5]
  percentage damage caused to the plant, AMARE (five-point scale): 1 (1=10-20%)
[6]
  percentage damage caused to the plant, ABUTH (five-point scale): 1 (1=10-20%)
[7]
  percentage damage caused to the plant, SETFA (five-point scale): 4 (4=61-80%)
[8]
  percentage damage caused to the plant, ZEAMX (five-point scale): 1 (1=10-20%)
[9]
  percentage damage caused to the plant, ECHCG (five-point scale): 4 (4=61-80%)
[10]
  percentage damage caused to the plant, five-point scale, ABUTH: 0 (0=0%)
[11]
  percentage damage caused to the plant, five-point scale, ZEAMX: 0 (0=0%)
[12]
  percentage damage caused to the plant, five-point scale, ECHCG: 4 (4=61-80%)

## CCCCCOC(=O)c1nn(-c2ccc(OC(F)(F)F)cc2)c2cccc(S(C)(=O)=O)c2c1=O [Compound P75, penyl 5-methylsulfonyl-4-oxo-1-[4-(trifluoromethoxy)phenyl]cinnoline-3-carboxylate]
[1]
  percentage damage caused to the plant, five-point scale, AMARE: 0 (0=0%)
[2]
  percentage damage caused to the plant, five-point scale, IPOHE: 0 (0=0%)
[3]
  percentage damage caused to the plant, five-point scale, SETFA: 4 (4=61-80%)
[4]
  percentage damage caused to the plant, IPOHE (five-point scale): 0 (0=0%)
[5]
  percentage damage caused to the plant, AMARE (five-point scale): 0 (0=0%)
[6]
  percentage damage caused to the plant, ABUTH (five-point scale): 0 (0=0%)
[7]
  percentage damage caused to the plant, SETFA (five-point scale): 4 (4=61-80%)
[8]
  percentage damage caused to the plant, ZEAMX (five-point scale): 0 (0=0%)
[9]
  percentage damage caused to the plant, ECHCG (five-point scale): 3 (3=41-60%)
[10]
  percentage damage caused to the plant, five-point scale, ABUTH: 0 (0=0%)
[11]
  percentage damage caused to the plant, five-point scale, ZEAMX: 1 (1=10-20%)
[12]
  percentage damage caused to the plant, five-point scale, ECHCG: 4 (4=61-80%)

## CN(C)CCOC(=O)c1nn(-c2ccc(OC(F)(F)F)cc2)c2cccc(S(C)(=O)=O)c2c1=O [Compound P76, 2-(dimethylamino)ethyl 5-methylsulfonyl-4-oxo-1-[4-(trifluoromethoxy)phenyl]cinnoline-3-carboxylate]
[1]
  percentage damage caused to the plant, five-point scale, AMARE: 0 (0=0%)
[2]
  percentage damage caused to the plant, five-point scale, IPOHE: 0 (0=0%)
[3]
  percentage damage caused to the plant, five-point scale, SETFA: 4 (4=61-80%)
[4]
  percentage damage caused to the plant, IPOHE (five-point scale): 1 (1=10-20%)
[5]
  percentage damage caused to the plant, AMARE (five-point scale): 1 (1=10-20%)
[6]
  percentage damage caused to the plant, ABUTH (five-point scale): 2 (2=21-40%)
[7]
  percentage damage caused to the plant, SETFA (five-point scale): 4 (4=61-80%)
[8]
  percentage damage caused to the plant, ZEAMX (five-point scale): 1 (1=10-20%)
[9]
  percentage damage caused to the plant, ECHCG (five-point scale): 3 (3=41-60%)
[10]
  percentage damage caused to the plant, five-point scale, ABUTH: 1 (1=10-20%)
[11]
  percentage damage caused to the plant, five-point scale, ZEAMX: 0 (0=0%)
[12]
  percentage damage caused to the plant, five-point scale, ECHCG: 3 (3=41-60%)
